Where a name gives a salt, the structure may show the parent alone. Read-outs that look alike come from different tables or passages of the source.
What was measured:
carbonic anhydrase = carbonic anhydrase (Homo sapiens, UniProt P00918); assay: carbonic anhydrase inhibition (I50) and Ki, methods of Ponticello et al., J. Med. Chem., 30, 591 (1987); assay type: biochemical; settings: for IC50: carbonic anhydrase inhibition
intraocular pressure = settings: cited from earlier work
[1] = tested on: ocular hypertensive monkey; assay: drop in IOP in the ocular hypertensive monkey (Lee et al., Curr. Eye Res., 4,775-781 (1985)); assay type: in vivo; settings: 16 hours after treatment
[2] = carbonic anhydrase, main value, read-out: Ki
[3] = value in parentheses, hi = more active component of racemic mixture, read-out: Ki (hi)

Ki (carbonic anhydrase; [2])	Ki (carbonic anhydrase; [3])	IC50 (carbonic anhydrase)	Structure (SMILES)	other results
3.6 nM	1.8 nM	–	CC[C@H]1C[C@H](NC)c2cc(S(N)(=O)=O)sc2S1(=O)=O (relative stereo) [Compound 4]	–
7.1 nM	2.6 nM	–	CC[C@@H]1C[C@H](NC)c2cc(S(N)(=O)=O)sc2S1(=O)=O (relative stereo) [Compound 5]	–
2.6 nM	0.13 nM	–	CCN[C@H]1C[C@@H](CC(C)C)S(=O)(=O)c2sc(S(N)(=O)=O)cc21 (relative stereo) [Compound 14]	–
0.3 nM	–	0.5 nM	CCN[C@H]1C[C@H](CC)S(=O)(=O)c2sc(S(N)(=O)=O)cc21 [Compound 10]	–
1 nM	–	0.8 nM	CCN[C@H]1C[C@@H](CC)S(=O)(=O)c2sc(S(N)(=O)=O)cc21 [Compound 11]	–

The next lines start with the compound.

Structure (SMILES)	Ki (carbonic anhydrase; [2])	Ki (carbonic anhydrase; [3])	IC50 (carbonic anhydrase)	other results
CCC[C@H]1C[C@H](NC)c2cc(S(N)(=O)=O)sc2S1(=O)=O (relative stereo) [Compound 6]	2.1 nM	0.85 nM	–	–
CCC[C@@H]1C[C@H](NC)c2cc(S(N)(=O)=O)sc2S1(=O)=O (relative stereo) [Compound 7]	2.8 nM	0.64 nM	–	–
C=CC[C@H]1C[C@H](NCC)c2cc(S(N)(=O)=O)sc2S1(=O)=O (relative stereo) [Compound 12, trans-6-Allyl-5,6-dihydro-4-ethylamino-4H-thieno[2,3-b]thiopyran-2-sulfonamide-7,7-dioxide hydrochloride]	–	–	0.23 nM	–
CC(C)(C)NC[C@H](O)COc1nsnc1N1CCOCC1 [(S)-1-tert-Butylamino[(4-morpholino-1,2,5-thiadiazol-3-yl)oxy]-2-propanol]	–	–	–	local anesthetic properties (intraocular pressure; advantage over many other β-adrenergic blocking agents, background statement): devoid of local anesthetic properties; unwanted side effects (intraocular pressure): devoid of many unwanted side effects associated with pilocarpine
CCC[C@H]1C[C@H](NCC)c2cc(S(N)(=O)=O)sc2S1(=O)=O.Cl [Compound 1, (S,S) (-)5,6-Dihydro-4-ethylamino-6-(n-propyl)-4H-thieno[2,3-b]thiopyran-2-sulfonamide-7,7-dioxide hydrochloride]	–	–	–	drop in IOP [1]: 11.3 mmHg
CCCN[C@H]1C[C@H](CCC)S(=O)(=O)c2sc(S(N)(=O)=O)cc21 [Compound 3]	0.23 nM	–	0.15 nM	–
CCN[C@H]1C[C@H](C)S(=O)(=O)c2sc(S(N)(=O)=O)cc21 [Compound 8]	–	–	–	drop in IOP [1]: 5.6 mmHg
C=CC[C@@H]1C[C@H](NCC)c2cc(S(N)(=O)=O)sc2S1(=O)=O [Compound 13, cis-6-Allyl-5,6-dihydro-4H-4-ethylaminothieno[2,3-b]thiopyran-2-sulfonamide-7,7-dioxide hydrochloride]	0.4 nM	–	0.21 nM	drop in IOP [1]: 9.8 mmHg
CNC(=O)Oc1ccc2c(c1)[C@]1(C)CCN(C)[C@@H]1N2C [physostigmine]	–	–	–	effect on intraocular pressure (intraocular pressure; background statement): reduce intraocular pressure
CC[C@@H]1C(=O)OC[C@@H]1Cc1cncn1C [pilocarpine]	–	–	–	effect on intraocular pressure (intraocular pressure; background statement): reduce intraocular pressure

— US5091409A (priority 1990, dated 1992)
